PubChem BioAssay (NCI)
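Following 48 hours of exposure in 96-well plates, responses at five concentrations were used to interpolate endpoints linearly. TGI: concentration producing complete growth inhibition.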 *1 amine or outer side, *2 acyl side, *3 side chain or, on linkers, in order; H or OH if unused. Where a SMILES comes first, the peptide text is derived from it. Bridges are numbered along the chain shown (N, C = ends). [ ]: non-standard residue; d: D form. The star is where a group is joined. ξ: configuration not given here. X34 = O=C(C(CCCCNO[*:3])N[*:1])[*:2]; Fmoc = O=C(OCC1c2ccccc2-c2ccccc21)*; ξW = NC(Cc1c[nH]c2ccccc12)C(=O)O; ξP = O=C(O)C1CCCN1

Tests used:
Assay in all cases: DTP human tumour cell line panel, 48 h
[1] = system: A549 NSCLC
[2] = system: BT-549 breast
[3] = system: HOP-92 NSCLC
[4] = system: HS 578T breast
[5] = system: K-562 leukemia
[6] = system: MDA-MB-435
[7] = system: OVCAR-8 ovarian
[8] = system: SK-MEL-2 melanoma
[9] = system: SW-620 colon
[10] = system: UACC-257 melanoma

Row | SMILES | TGI [1] | TGI [2] | TGI [3] | TGI [4] | TGI [5] | TGI [6] | TGI [7] | TGI [8] | TGI [9] | TGI [10]
1 | O=C(CN1c2ccccc2Sc2ccccc21)N1CCNCC1 | > 100 µM | > 100 µM | > 100 µM | > 100 µM | > 100 µM | > 100 µM | > 100 µM | > 100 µM | > 100 µM | > 100 µM
2 | Nc1cc(CO)cc(Nc2nc3ccc(Cl)cc3c3[nH]c4ccccc4c23)c1 | 57.3 µM | 24.6 µM | 9.11 µM | 36.5 µM | 27.3 µM | 15.3 µM | 18.5 µM | 15 µM | 29.3 µM | 23.2 µM
3 | CCOc1cc(NC(C)=O)ccc1C(=O)NNC(=O)c1ccccc1OC(C)=O | > 100 µM | > 100 µM | > 100 µM | > 100 µM | > 40.3 µM | > 100 µM | > 100 µM | > 100 µM | > 100 µM | 52.5 µM
4 | O=C1/C(=C/c2ccccc2)N=C(c2ccccc2)N1n1c(-c2ccccc2)nc2ccccc2c1=O | > 100 µM | > 100 µM | > 100 µM | > 100 µM | > 100 µM | > 100 µM | > 100 µM |  | > 100 µM | > 100 µM
5 | C=C1CC(COc2cc(=O)oc3ccccc23)(c2ccccc2)OC1=O (centres undefined) | 25.1 µM | 2.97 µM | 2.34 µM | 27.5 µM | 3.1 µM | 11 µM | 4.87 µM | 2.33 µM | 3.35 µM | 6.65 µM
6 | C[N+]1=C2[B-](C(C)(C)C)=[N+](C(C)(C)C)[B-]2(C(C)(C)C)[N+](C)=C2[B-](C(C)(C)C)=[N+](C(C)(C)C)[B-]21C(C)(C)C (centres undefined) | > 100 µM | > 100 µM | > 100 µM | > 100 µM | > 100 µM | > 100 µM | > 100 µM | > 100 µM | > 100 µM | > 100 µM
7 | O=c1nc(N2CCN(c3ccccc3)CC2)ccn1C1OC(CO)C(O)C1O (centres undefined) | > 100 µM | > 100 µM | > 100 µM | > 100 µM | > 100 µM | > 100 µM | > 100 µM | > 100 µM | > 100 µM | > 100 µM
8 | OC1C2[C@@H](O)CCCN2C[C@@H](O)[C@H]1O (some centres undefined) | > 100 µM | > 100 µM | > 100 µM | > 100 µM | > 100 µM | > 100 µM | > 100 µM | > 100 µM | > 100 µM | > 100 µM
9 | NC(=O)CNC(=O)C1CCCN1C(=O)C1CCCCNOC(=O)CC[C@@H](NC(=O)OCC2c3ccccc3-c3ccccc32)C(=O)NC(Cc2c[nH]c3ccccc23)C(=O)N1 (some centres undefined) (Fmoc-[dE][ξW][X34][ξP]G-NH2; ester 1-3) | > 100 µM | > 100 µM | > 100 µM | > 100 µM | > 100 µM | > 100 µM | > 100 µM | > 100 µM | > 100 µM | > 100 µM
10 | CN(C)CCCOc1nc2c(c(=O)n(C)c(=O)n2C)n1C (tested in a mixture with another compound) | > 100 µM | > 100 µM | > 100 µM | > 100 µM | > 100 µM | > 100 µM | > 100 µM | > 100 µM | > 100 µM | > 100 µM
11 | CC(C)(N=NC(C)(C)C(=O)NCCO)C(=O)NCCO | > 100 µM | > 100 µM | > 100 µM | > 100 µM | > 100 µM | > 100 µM | > 100 µM | > 100 µM | > 100 µM | > 100 µM
